Reference: patent US9617244B2, “Antibacterial quinoline derivatives” (JANSSEN PHARMACEUTICA NV, priority 2012, dated 2017)
≈ marks a conversion by molar mass, not a printed value. Where a name gives a salt, the structure may show the parent alone.

Key:
[1] = test system: Staphylococcus aureus (ATCC29213); assay: In-vitro anti-bacterial activity, microtitre plate assay, IC90 determination (non-mycobacterial strains); type: cell-based; conditions: 90% inhibitory concentration for bacterial growth, resazurin fluorescence; for IC90 STA B29213: 24 hours; for IC90: Staphylococcus aureus, ATCC29213, 24 h, read-out: IC90 STA B29213
Procedure, shortened: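 Growth inhibition measured fluorometrically with resazurin (530/590 nm) after overnight 37 °C incubation under normal atmosphere. Bacteria added at roughly 100 TCID50 per well in Mueller-Hinton broth to five-fold compound dilution series; IC90 reported in μg/ml.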

[2] = test system: Mycobacterium smegmatis (ATCC607); assay: In-vitro anti-bacterial activity against strain M. Smegmatis ATCC607; type: cell-based; conditions: 90% inhibitory concentration for bacterial growth, Alamar Blue fluorescence; for IC90 MSM 607: 48 hours; for IC90: Mycolicibacterium smegmatis, ATCC607, 48 h, read-out: IC90 MSM 607
Procedure, shortened: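 IC90 (μg/ml) derived from Alamar Blue fluorescence (530/590 nm) after 48 h growth at 37 °C under 5% CO2. About 250 CFU per well in Mueller-Hinton broth faced five-fold serial compound dilutions in BSA-containing wells.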

IC90 STA B29213 [1]	IC90 MSM 607 [2]	melting point	IC90 [1]	IC90 [2]	Structure (SMILES)
7.16 µg/mL (≈ 12.6 µM)	7.16 µg/mL (≈ 12.6 µM)	128 °C	–	–	COc1nc2ccc(S(C)(=O)=O)cc2cc1C(c1ccc(Cl)cc1)C1(O)CCNC(Cc2ccc(F)cc2)C1 (centres unmarked) [Compound 389]
7.59 µg/mL (≈ 14.1 µM)	3.39 µg/mL (≈ 6.31 µM)	94 °C	–	–	COc1nc2ccc(SC)cc2cc1C(c1ccc(Cl)cc1)C1(O)CCNC(Cc2ccc(F)cc2)C1 (centres unmarked) [Compound 262]
3.71 µg/mL (≈ 6.31 µM)	2.95 µg/mL (≈ 5.02 µM)	159 °C	–	–	COc1nc2ccc(Br)cc2cc1C(c1ccc(Cl)cc1)C1(O)CCNC(Cc2ccc(F)cc2F)C1 (centres unmarked) [Compound 320]
–	–	240 °C	> 14.3 µg/mL	> 14.3 µg/mL	COc1nc2ccc(S(C)(=O)=O)cc2cc1C(c1ccc(Cl)cc1)C1(O)CCNCC1Cc1cccc[n+]1[O-] (centres unmarked) [Compound 65]
3.06 µg/mL (≈ 6.31 µM)	2.16 µg/mL (≈ 4.46 µM)	190 °C	–	–	COc1nc2ccc(SC)cc2cc1C(c1ccccc1)C1(O)CCNC(Cc2ccccc2)C1 (centres unmarked) [Compound 142]
>12.98 µg/mL	>12.98 µg/mL	198 °C	–	–	COc1nc2ccc(S(C)(=O)=O)cc2cc1C(c1ccccc1)C1(O)CCNC(Cc2ccccc2)C1 (centres unmarked) [Compound 158]
1.55 µg/mL (≈ 3.16 µM)	2.46 µg/mL (≈ 5.01 µM)	102 °C	–	–	COc1nc2ccc(F)cc2cc1C(c1ccc(Cl)cc1)C1(O)CCNC(Cc2ccccc2)C1 (centres unmarked) [Compound 53]
3.39 µg/mL (≈ 6.31 µM)	3.39 µg/mL (≈ 6.31 µM)	104 °C	–	–	COc1nc2ccc(SC)cc2cc1C(c1ccc(Cl)cc1)C1(O)CCNC(Cc2ccc(F)cc2)C1 (centres unmarked) [Compound 260]
–	1.90 µg/mL (≈ 3.44 µM)	183 °C	3.48 µg/mL (≈ 6.31 µM)	–	COc1nc2ccc(Br)cc2cc1C(c1ccc(Cl)cc1)C1(O)CCNC(Cc2ccccc2)C1 (centres unmarked) [Compound 31]
7.16 µg/mL (≈ 12.6 µM)	5.69 µg/mL (≈ 10 µM)	175 °C	–	–	COc1nc2ccc(Cl)cc2cc1C(c1ccc(S(C)(=O)=O)cc1)C1(O)CCNC(c2ccc(F)cc2C)C1 (centres unmarked) [Compound 367]
5.76 µg/mL (≈ 12.6 µM)	2.89 µg/mL (≈ 6.32 µM)	150 to 152 °C	–	–	C=CCC1CNCCC1(O)C(c1cccc(Cl)c1)c1cc2cc(Cl)ccc2nc1OC (centres unmarked) [Compound 395]
3.08 µg/mL (≈ 6.31 µM)	3.08 µg/mL (≈ 6.31 µM)	193 °C	–	–	C=CC1CC(O)(C(c2ccc(Cl)cc2)c2cc3cc(Br)ccc3nc2OC)CCN1 (centres unmarked) [Compound 373]
1.70 µg/mL (≈ 3.17 µM)	0.85 µg/mL (≈ 1.58 µM)	123 to 125 °C	–	–	COc1nc2ccc(Cl)cc2cc1C(c1ccc(SC)cc1)C1(O)CCNC(c2ccc(F)cc2C)C1 (centres unmarked) [Compound 352]
6.15 µg/mL (≈ 12.6 µM)	4.89 µg/mL (≈ 10 µM)	> 250 °C	–	–	CSc1ccc2[nH]c(=O)c(C(c3ccccc3)C3(O)CCNC(c4ccc(F)cc4C)C3)cc2c1 (centres unmarked) [Compound 178]
3.39 µg/mL (≈ 6.31 µM)	3.39 µg/mL (≈ 6.31 µM)	184 °C	–	–	COc1nc2ccc(SC)cc2cc1C(c1ccc(Cl)cc1)C1(O)CCNCC1Cc1cccc(F)c1 (centres unmarked) [Compound 283]
1.76 µg/mL (≈ 3.17 µM)	2.78 µg/mL (≈ 5.01 µM)	160 °C	–	–	COc1nc2ccc(SC)cc2cc1C(c1ccc(Cl)cc1)C1(O)CCNC(Cc2ccc(F)c(F)c2)C1 (centres unmarked) [Compound 189]
1.69 µg/mL (≈ 3.16 µM)	2.68 µg/mL (≈ 5.01 µM)	149 °C	–	–	COc1nc2ccc(Br)cc2cc1C(c1ccccc1)C1(O)CCNC(c2ccc(F)cc2C)C1 (centres unmarked) [Compound 194]
5.69 µg/mL (≈ 10 µM)	2.85 µg/mL (≈ 5.01 µM)	174 °C	–	–	COc1nc2ccc(S(C)(=O)=O)cc2cc1C(c1ccc(Cl)cc1)C1(O)CCNC(c2ccc(F)cc2C)C1 (centres unmarked) [Compound 218]
11.03 µg/mL (≈ 20 µM)	11.03 µg/mL (≈ 20 µM)	154 °C	–	–	COc1nc2ccc(F)cc2cc1C(c1ccc(S(C)(=O)=O)cc1)C1(O)CCNC(c2ccc(F)cc2C)C1 (centres unmarked) [Compound 419]
14.30 µg/mL (≈ 25.1 µM)	5.69 µg/mL (≈ 10 µM)	174 °C	–	–	COc1nc2ccc(S(C)(=O)=O)cc2cc1C(c1cccc(Cl)c1)C1(O)CCNC(c2ccc(F)cc2C)C1 (centres unmarked) [Compound 47]
–	–	135 °C	7.09 µg/mL (≈ 15.8 µM)	2.82 µg/mL (≈ 6.3 µM)	COc1nc2ccc(Cl)cc2cc1C(c1ccc(Cl)cc1)C1(O)CCNC(CO)C1 (centres unmarked) [Compound 12]
10.94 µg/mL (≈ 25.1 µM)	10.94 µg/mL (≈ 25.1 µM)	115 °C	–	–	COc1nc2ccc(Cl)cc2cc1C(c1ccc(Cl)cc1)C1(O)CCNCC1F (centres unmarked) [Compound 456]
1.70 µg/mL (≈ 3.17 µM)	1.70 µg/mL (≈ 3.17 µM)	122 °C	–	–	COc1nc2ccc(SC)cc2cc1C(c1ccc(Cl)cc1)C1(O)CCNC(Cc2ccc(F)cc2)C1 (centres unmarked) [Compound 261]
3.48 µg/mL (≈ 6.31 µM)	2.20 µg/mL (≈ 3.99 µM)	152 °C	–	–	COc1nc2ccc(Br)cc2cc1C(c1cccc(Cl)c1)C1(O)CCNC(Cc2ccccc2)C1 (centres unmarked) [Compound 34]

IC90 STA B29213 [1]	IC90 MSM 607 [2]	melting point	IC90 [1]	IC90 [2]	Structure (SMILES)
14.96 µg/mL (≈ 25.1 µM)	14.96 µg/mL (≈ 25.1 µM)	135 °C	–	–	COc1nc2ccc(Br)cc2cc1C(c1ccc(S(C)(=O)=O)cc1)C1(O)CCNC(Cc2ccccc2)C1 (centres unmarked) [Compound 103]
3.08 µg/mL (≈ 6.31 µM)	1.23 µg/mL (≈ 2.52 µM)	162 °C	–	–	C=CC1CC(O)(C(c2ccc(Cl)cc2)c2cc3cc(Br)ccc3nc2OC)CCN1 (centres unmarked) [Compound 374]
0.83 µg/mL (≈ 1.58 µM)	0.83 µg/mL (≈ 1.58 µM)	146 °C	–	–	COc1nc2ccc(Cl)cc2cc1C(c1ccc(Cl)cc1)C1(O)CCNC(c2ccc(F)cc2C)C1 (single isomer, unassigned) [Compound 3]
–	–	100 °C	> 11.8 µg/mL	> 11.8 µg/mL	COc1nc2ccc(CN)cc2cc1[C@@H](c1ccccc1)C1(O)CCNC(Cc2ccccc2)C1 (some centres unmarked) [Compound 246]
–	2.75 µg/mL (≈ 6.32 µM)	210 °C	5.48 µg/mL (≈ 12.6 µM)	–	COc1nc2ccc(Cl)cc2cc1C(c1ccc(Cl)cc1)C1(O)CCNCC1F (centres unmarked) [Compound 453]
12.42 µg/mL (≈ 25.1 µM)	–	172 °C	–	–	COc1nc2ccc(Cl)cc2cc1C(c1ccc(Cl)cc1)C1(O)CCNCC1c1cccnc1 (centres unmarked) [Compound 444]
12.77 µg/mL (≈ 25.1 µM)	–	132 °C	–	–	COc1nc2ccc(Cl)cc2cc1C(c1ccc(Cl)cc1)C1(O)CCNCC1Cc1ccccn1 (centres unmarked) [Compound 439]
4.38 µg/mL (≈ 7.94 µM)	–	112 °C	–	–	COc1nc2ccc(Br)cc2cc1C(c1ccc(Cl)cc1)C1(O)CCNC(Cc2ccccc2)C1 (centres unmarked) [Compound 70]
–	–	135 °C	> 9.96 µg/mL	–	COc1nc2ccc(F)cc2cc1C(c1ccccc1)C1(O)CCNC(CO)C1 (centres unmarked) [Compound 29]
3.50 µg/mL (≈ 7.08 µM)	–	154 °C	–	–	COc1nc2ccc(Cl)cc2cc1C(c1ccc(Cl)cc1)C1(O)CCNCC1c1cccnc1 (centres unmarked) [Compound 445]
4.41 µg/mL (≈ 8.92 µM)	–	156 °C	–	–	COc1nc2ccc(Cl)cc2cc1C(c1ccc(Cl)cc1)C1(O)CCNCC1c1cccnc1 (centres unmarked) [Compound 443]
–	–	232 °C	> 10.9 µg/mL	–	O=c1[nH]c2ccc(Cl)cc2cc1C(c1ccc(Cl)cc1)C1(O)CCNC(CO)C1 (centres unmarked) [Compound 20]
–	–	135 °C	13.4 µg/mL (≈ 25.1 µM)	–	COc1nc2ccc(F)cc2cc1C(c1ccc(Cl)cc1)C1(O)CCN(C(C)c2ccccc2)C(CO)C1 (centres unmarked) [Compound 436]
–	–	168 °C	–	–	COc1nc2ccc(SC)cc2cc1C(c1cccc(Cl)c1)C1(O)CCNC(c2ccc(F)cc2C)C1 (centres unmarked) (as salt: fumarate) [Compound 165]
–	–	232 °C	–	–	CS(=O)(=O)c1ccc2[nH]c(=O)c(C(c3cccc(Cl)c3)C3(O)CCNC(Cc4ccc(F)cc4F)C3)cc2c1 (centres unmarked) (as salt: hydrochloride) [Compound 307]
4.38 µg/mL (≈ 7.94 µM)	–	138 °C	–	–	COc1nc2ccc(Br)cc2cc1C(c1ccc(Cl)cc1)C1(O)CCNC(Cc2ccccc2)C1 (centres unmarked) [Compound 71]
–	–	233 °C	8.52 µg/mL (≈ 15.8 µM)	–	O=c1[nH]c2ccc(Br)cc2cc1C(c1ccc(Cl)cc1)C1(O)CCNC(Cc2ccccc2)C1 (centres unmarked) [Compound 81]
–	–	166 to 168 °C	–	–	COc1nc2ccc(Cl)cc2cc1C(c1ccc(SC)cc1)C1(O)CCNC(c2ccc(F)cc2C)C1 (centres unmarked) (as salt: fumarate) [Compound 353]
3.21 µg/mL (≈ 6.31 µM)	–	188 °C	–	–	COc1nc2ccc(Cl)cc2cc1C(c1ccc(Cl)cc1)C1(O)CCNCC1Cc1ccccn1 (centres unmarked) [Compound 438]
–	–	138 °C	–	–	COc1nc2ccc(Cl)cc2cc1C(c1ccc(S(C)(=O)=O)cc1)C1(O)CCNC(c2ccc(F)cc2C)C1 (centres unmarked) (as salt: fumarate) [Compound 369]
–	–	164 °C	–	–	COc1nc2ccc(F)cc2cc1C(c1ccc(Cl)cc1)C1(O)CCNC(c2ccc(F)cc2C)C1 (centres unmarked) (as salt: fumarate) [Compound 332]
–	–	175 to 177 °C	–	–	COc1nc2ccccc2cc1C(c1ccccc1)C1(O)CCNC(Cc2ccccc2)C1 (centres unmarked) (as salt: fumarate) [Compound 402]
–	–	> 250 °C	–	–	CSc1ccc2[nH]c(=O)c(C(c3ccc(Cl)cc3)C3(O)CCNC(c4ccccc4)C3)cc2c1 (centres unmarked) (as salt: hydrochloride) [Compound 230]
